Each block holds one molecule with its values, some of them ahead of it.
Key:
[1] = tested on: galium (catchweed bedstraw, Galium aparine); experiment: Test A postemergence, galium; type: in vivo; details: Galium, post-emergence, 240 h, 0 to 100 scale, 0 no effect, 100 complete control, read-out: Plant response rating, Galium; for pest or weed control at 125 g/ha: 125 g ai/ha; for pest or weed control at 500 g/ha: 500 g ai/ha
Summary of the method: (§1)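 Greenhouse test; plants at one- to two-leaf stage (2–10 cm) sprayed postemergence with compound in non-phytotoxic solvent/surfactant mix, or soil sprayed preemergence after seeding in loam–sand blend. Injury rated visually versus untreated controls after about 10 d, 0 (no effect) to 100 (complete control).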

corn (Zea mays) = experiment: Test A postemergence, corn; type: in vivo; details: Zea mays, post-emergence, 240 h, 0 to 100 scale, 0 no effect, 100 complete control; for Corn plant response rating (crop injury, 0 = no effect, 100 = complete kill) at 125 g/ha: 125 g ai/ha; for Corn plant response rating (crop injury, 0 = no effect, 100 = complete kill) at 500 g/ha: 500 g ai/ha
Summary of the method: as §1

[2] = tested on: blackgrass (Alopecurus myosuroides); experiment: Test A postemergence, blackgrass; type: in vivo; details: Alopecurus myosuroides, post-emergence, 240 h, 0 to 100 scale, 0 no effect, 100 complete control, read-out: Plant response rating, Blackgrass; for pest or weed control at 125 g/ha: 125 g ai/ha; for pest or weed control at 500 g/ha: 500 g ai/ha
Summary of the method: as §1

SMILES: C[C@@H](Nc1ncc(C(F)(F)F)c(N)n1)c1cc2cccc(F)c2o1 [Compound 71, N2-[(1R)-1-(7-fluoro-2-benzofuranyl)ethyl]-5-(trifluoromethyl)-2,4-pyrimidinediamine]
pest or weed control at 125 g/ha [1]: 80% | pest or weed control at 500 g/ha [1]: 90% | Corn plant response rating (crop injury, 0 = no effect, 100 = complete kill) at 125 g/ha (corn (Zea mays)): 0% | Corn plant response rating (crop injury, 0 = no effect, 100 = complete kill) at 500 g/ha (corn (Zea mays)): 40% | pest or weed control at 125 g/ha [2]: 0% | pest or weed control at 500 g/ha [2]: 50%

SMILES: C[C@@H](Nc1ncc(C(F)(F)F)c(N)n1)c1cc2c(F)cccc2o1 [Compound 73, N2-[(1R)-1-(4-fluoro-2-benzofuranyl)ethyl]-5-(trifluoromethyl)-2,4-pyrimidinediamine]
pest or weed control at 125 g/ha [1]: 90% | pest or weed control at 500 g/ha [1]: 90% | Corn plant response rating (crop injury, 0 = no effect, 100 = complete kill) at 125 g/ha (corn (Zea mays)): 30% | Corn plant response rating (crop injury, 0 = no effect, 100 = complete kill) at 500 g/ha (corn (Zea mays)): 40% | pest or weed control at 125 g/ha [2]: 50% | pest or weed control at 500 g/ha [2]: 80%

SMILES: C[C@@H](Nc1ncc(C(F)(F)F)c(N)n1)c1cc2cccc(F)c2s1 [Compound 75, N2-[(1R)-1-(7-fluorobenzo[b]thien-2-yl)ethyl]-5-(trifluoromethyl)-2,4-pyrimidinediamine]
pest or weed control at 125 g/ha [1]: 80% | pest or weed control at 500 g/ha [1]: 80% | Corn plant response rating (crop injury, 0 = no effect, 100 = complete kill) at 125 g/ha (corn (Zea mays)): 0% | Corn plant response rating (crop injury, 0 = no effect, 100 = complete kill) at 500 g/ha (corn (Zea mays)): 10% | pest or weed control at 125 g/ha [2]: 0% | pest or weed control at 500 g/ha [2]: 30%

melting point: 137 to 141 °C
SMILES: C[C@@H](Nc1ncc(C(F)(F)F)c(N)n1)c1cc2c(F)cccc2s1 [Compound 61, N2-[(1R)-1-(4-fluorobenzo[b]thien-2-yl)ethyl]-5-(trifluoromethyl)-2,4-pyrimidinediamine]
pest or weed control at 125 g/ha [1]: 70% | pest or weed control at 500 g/ha [1]: 100% | Corn plant response rating (crop injury, 0 = no effect, 100 = complete kill) at 125 g/ha (corn (Zea mays)): 10% | Corn plant response rating (crop injury, 0 = no effect, 100 = complete kill) at 500 g/ha (corn (Zea mays)): 60% | pest or weed control at 125 g/ha [2]: 80% | pest or weed control at 500 g/ha [2]: 70%
